{"source": "patent US20240279183A1", "about": "“COMPOUNDS AND PHARMACEUTICAL COMPOSITIONS FOR USE IN NEURODEGENERATIVE DISORDERS” (Universiteit Hasselt, priority 2021, published 2024)", "key": {"[1]": {"tested_on": "Male wild type C57bl6 mice fed cuprizone", "test": "Visual evoked potentials after cuprizone diet (in vivo)", "set-up": "species or system mouse", "conditions": "0.1 mg/kg or 0.3 mg/kg subcutaneous twice a day, remyelination phase, compared to vehicle", "method": "Male wild type C57bl6 mice were fed regular chow (n=6) or 0.3% (w/w)cuprizone (n=21) for 6 weeks to […]. Afterwards, cuprizone was removed and recovery was allowed. Two days before ceasing the cuprizone diet, until the end of the experiment, animals received twice a day subcutaneous injections consisting of 0.1% DMSO in 0.5% methylcellulose solution with either vehicle (no cuprizone and vehicle group; n=6 and n=8 respectively), 0.1 mg/kg RICE (n=7) or 0.3 mg/kg RICE (n=6) (FIG. 3). […] After either three or four days after ceasing the cuprizone diet, visual evoked potential were measured to evaluate optic tract and nerve signaling (groups equally divided over testing days). Epidermal VEP was recorded in response to flash stimulation (3 trains of 20 stimuli, 10 us duration, 1 Hz frequency) from both eyes. […] A one-way ANOVA with Kruskall Wallis multiple comparison test was conducted to evaluate statistical significances (*p≤0.05; **p<0.01, ****p<0.001)."}, "[2]": {"tested_on": "Mouse cerebellar brain slices", "test": "Myelination in lysolecithin-demyelinated brain slices (ex vivo)", "assay_type": "cell-based", "conditions": "1 μM, 10 days", "method": "Mouse cerebellar brain slices (350 μm) were made from the cerebellum of p10 C57bl6 pups. After 4 days in culture, slices were demyelinated using 0.5 mg/ml lysolecithin (18 h) and subsequently treated for 10 days with 1 μM RICE (in 0.1% DMSO) (FIG. 2)."}, "[3]": {"tested_on": "young adult C57BL/6J-OlaHsd mice", "test": "Object location task (OLT), 24h intertrial interval", "assay_type": "in vivo, mouse", "method": "Mice received a subcutaneous injection with vehicle (0.1% DMSO in 2% Tween80 and 0.5% methylcellulose), roflumilast 0.03 mg/kg as a positive control, or RICE01 (0.00003 mg/kg-0.3 mg/kg) 3h after the first learning trial of the 24h interval OLT."}, "[4]": {"tested_on": "Primary mouse oligodendrocyte precursor cells (OPCs)", "test": "OPC differentiation (in vitro), O4 and MBP staining", "assay_type": "cell-based", "conditions": "for OPC differentiation towards oligodendrocytes: nanomolar ranges", "method": "Primary mouse oligodendrocyte precursor cells (OPCs) were isolated from p0 C57bl6 pups using the shake off method at day 0 (FIG. 1). […] Primary OPCs (150,000 cells/condition) were cultured and stimulated with vehicle (0.1% DMSO) or different concentration of RICE (3 nM, 10 nM, 30 nM, 100 nM, 300 nM, 1000 nM) in 0.1% DMSO. Treatment was repeated on day 2 and day 4, applying a 40% medium change. Cells were fixated at day 6 and stained for O4, a late OPC marker, and MBP, an oligodendrocyte marker. […] The increased expression of O4 declined from 100 nM RICE onwards."}}, "note": "“Also recorded” adds a separate entry of the source."}
{"smiles": "Oc1cc(-c2ccn(CC(O)CN3CCOCC3)n2)ccc1OC(F)F", "note": "(stereo not shown) [RICE01]", "values": [{"measurement": "visual evoked potential latency", "setting": "[1]", "result": "decreased latency times"}, {"measurement": "(re)myelination (myelination index / MBP expression)", "setting": "[2]", "result": "improved (re)myelination"}, {"measurement": "D2 value versus zero (one-sample t-test)", "setting": "[3]; 0.00003 mg/kg subcutaneous", "result": "significantly higher than zero"}, {"measurement": "D2 value versus zero (one-sample t-test)", "setting": "[3]; 0.0001 mg/kg subcutaneous", "result": "significantly higher than zero"}, {"measurement": "d2 index compared with vehicle treatment (Dunnett's)", "setting": "[3]; 0.0001 mg/kg subcutaneous", "result": "significantly higher d2 index"}, {"measurement": "D2 value versus zero (one-sample t-test)", "setting": "[3]; 0.0003 mg/kg subcutaneous", "result": "significantly higher than zero"}, {"measurement": "D2 value versus zero (one-sample t-test)", "setting": "[3]; 0.001 mg/kg subcutaneous", "result": "significantly higher than zero"}, {"measurement": "D2 value versus zero (one-sample t-test)", "setting": "[3]; 0.01 mg/kg subcutaneous", "result": "significantly higher than zero"}, {"measurement": "D2 value versus zero (one-sample t-test)", "setting": "[3]; 0.03 mg/kg subcutaneous", "result": "significantly higher than zero"}, {"measurement": "D2 value versus zero (one-sample t-test)", "setting": "[3]; 0.1 mg/kg subcutaneous", "result": "significantly higher than zero"}, {"measurement": "d2 index compared with vehicle treatment (Dunnett's)", "setting": "[3]; 0.1 mg/kg subcutaneous", "result": "significantly higher d2 index"}, {"measurement": "discrimination index (D2) in the object location task", "setting": "[3]; subcutaneous, 0.00003 mg/kg-0.3 mg/kg, 3h after first learning trial", "result": "increases"}, {"measurement": "MBP expression (oligodendrocyte marker)", "setting": "[4]; 3-1000 nM, day 6", "result": "dose dependently increased"}, {"measurement": "O4 expression (late OPC marker)", "setting": "[4]; 3-1000 nM, treatment day 0, 2, 4, fixated day 6", "result": "increased with the lower concentrations"}, {"measurement": "concentration from which the increased expression of O4 declined", "setting": "[4]; day 6", "result": "≥ 100", "unit": "nM"}, {"measurement": "concentration of maximal MBP expression", "setting": "[4]; day 6", "result": 30, "unit": "nM"}, {"measurement": "concentration of maximal O4 expression increase", "setting": "[4]; day 6", "result": 10, "unit": "nM"}, {"measurement": "OPC differentiation towards oligodendrocytes", "setting": "[4]", "result": "induces OPC differentiation and myelin production"}, {"measurement": "OPC differentiation towards oligodendrocytes", "setting": "[4]; listed as RICE", "result": "boosts OPC differentiation towards oligodendrocytes; also recorded: boosted OPC differentiation; also recorded: stimulated the differentiation of oligodendrocytes"}]}
